Values belong to the compound of their own block, whether it stands above or below them.
What was measured:
Assay type in all cases: physicochemical
[1] = Physical stability of BCD solutions in gel vehicle stored at 5° C.; details: for Results after storage at 5° C.: monitored weekly for two weeks
Description: Different solutions according to Table 1 were made with varying concentrations of beta-cyclodextrin (BCD). The solutions of BCD were maintained at 5° C. monitored weekly for two weeks for signs of crystal or precipitate formation.

[2] = Physical stability / stable solubility of metronidazole in gel vehicle containing 0.5% BCD at 5° C.; details: for Result at 5° C., 1 week: BCD 0.5 % w/w, gel vehicle
Description: Different concentrations of metronidazole were prepared with the gel vehicle of Example 1 containing 0.5% BCD. The metronidazole (MTZ)/BCD solutions were maintained at 5° C. for one week.

[3] = Physical stability of 1.0% metronidazole gel solutions with BCD and niacinamide at 5° C.; details: Metronidazole 1.0 % w/w
Description: Various gel solutions of Table 1 were prepared with a concentration of 1.0% metronidazole and containing either 0.5% or 1.0% BCD and differing concentrations of niacinamide. The gels were maintained at 5° C. for one week to observe for precipitate or crystal formation.

[4] = Physical stability of 1.0% metronidazole gel solutions with niacin at 5° C.; details: MTZ 1.0 % w/w, pH 5.0+/−0.15, gel
Description: The pH was adjusted to 5.0+/−0.15 with trolamine. The solutions were maintained at 5° C. for one week to observe evidence of precipitation or crystal formation.

[5] = Physical stability of 1% metronidazole solutions with 0.5% niacin and varying BCD at 5° C.; details: for Results, 5° C., 1 week: MTZ 1.0 % w/w, niacin 0.5 % w/w, pH 5.0+/−0.15
Description: The solutions were maintained at 5° C. for one week to observe for crystal or precipitate formation.

[6] = Physical stability of 1.0% metronidazole gel solutions with BCD and niacinamide at 5° C.
[7] = BCD at its maximum soluble aqueous concentration (0.5%), 5° C.

- saturated BCD solubility in the aqueous solutions ([1]; 5° C., aqueous solution such as gel): about 0.5%
- Results after storage at 5° C. ([1]; BCD 0.5 % w/w in gel vehicle of Table 1): Clear after 2 weeks
- Results after storage at 5° C. ([1]; BCD 0.6 % w/w in gel vehicle of Table 1): Crystals formed after 2 weeks
- Results after storage at 5° C. ([1]; BCD 0.7 % w/w in gel vehicle of Table 1): Crystals at one week
- Results after storage at 5° C. ([1]; BCD 0.9 % w/w in gel vehicle of Table 1): Crystals at one week
- Results after storage at 5° C. ([1]; BCD 1.0 % w/w in gel vehicle of Table 1): Crystals at one week
- Results after storage at 5° C. ([1]; BCD 1.2 % w/w in gel vehicle of Table 1): Crystals at one week
- Results after storage at 5° C. ([1]; BCD 1.4 % w/w in gel vehicle of Table 1): Crystals at one week
- Results after storage at 5° C. ([1]; BCD 1.5 % w/w in gel vehicle of Table 1): Crystals at one week
SMILES: OC[C@H]1O[C@@H]2O[C@H]3[C@H](O)[C@@H](O)[C@@H](O[C@H]4[C@H](O)[C@@H](O)[C@@H](O[C@H]5[C@H](O)[C@@H](O)[C@@H](O[C@H]6[C@H](O)[C@@H](O)[C@@H](O[C@H]7[C@H](O)[C@@H](O)[C@@H](O[C@H]8[C@H](O)[C@@H](O)[C@@H](O[C@H]1[C@H](O)[C@H]2O)O[C@@H]8CO)O[C@@H]7CO)O[C@@H]6CO)O[C@@H]5CO)O[C@@H]4CO)O[C@@H]3CO [BCD, beta-cyclodextrin]

- increase of stable solubility of MTZ by BCD [2, 7]: 0.1%
- stable solubility of MTZ in aqueous solution with BCD [2, 7]: 0.8%
- Result at 5° C., 1 week ([2]; MTZ 0.7 % w/w): Clear
- Result at 5° C., 1 week ([2]; MTZ 0.8 % w/w): Clear
- Result at 5° C., 1 week ([2]; MTZ 0.9 % w/w): Crystals formed
- stable solubility of MTZ in aqueous solution, unaided ([2]; aqueous solution such as a gel, 5° C., without solubility enhancer): 0.7%
- stable solubility of metronidazole in the gel vehicle ([2]; gel vehicle containing 0.5% BCD, 5° C.): about 0.8 % w/w
- Results at 5° C., 1 week ([3]; BCD 0.5 % w/w, niacinamide 0.5 % w/w): Crystals formed
- Results at 5° C., 1 week ([3]; BCD 0.5 % w/w, niacinamide 1.0 % w/w): Clear
- Results at 5° C., 1 week ([3]; BCD 0.5 % w/w, niacinamide 2.0 % w/w): Clear
- Results at 5° C., 1 week ([3]; BCD 1.0 % w/w, niacinamide 0.5 % w/w): Precipitate formed
- Results at 5° C., 1 week ([3]; BCD 1.0 % w/w, niacinamide 1.0 % w/w): Clear
- Results at 5° C., 1 week ([3]; BCD 1.0 % w/w, niacinamide 2.0 % w/w): Clear
- Results, 5° C., 1 week ([4]; niacin 0.10 % w/w): Crystals formed
- Results, 5° C., 1 week ([4]; niacin 0.15 % w/w): Crystals formed
- Results, 5° C., 1 week ([4]; niacin 0.25 % w/w): Crystals formed
- Results, 5° C., 1 week ([4]; niacin 0.5 % w/w, seven out of eight samples showed crystal formation): Clear/Crystals formed*
- Results, 5° C., 1 week ([4]; niacin 1.0 % w/w): Clear
- Results, 5° C., 1 week ([4]; niacin 1.2 % w/w): Clear
- Results, 5° C., 1 week ([4]; niacin 1.5 % w/w): Clear
- Results, 5° C., 1 week ([4]; niacin 1.8 % w/w): Clear
- Results, 5° C., 1 week ([4]; niacin 2.0 % w/w): Clear
- Results, 5° C., 1 week ([4]; niacin […] w/w): Clear
- solubility of MTZ with niacin and BCD combined ([5]; 0.5% niacin combined with 0.5% BCD, pH of about 5): 1%
- Results, 5° C., 1 week ([5]; BCD 0.2 % w/w): Crystals formed
- Results, 5° C., 1 week ([5]; BCD 0.3 % w/w): Crystals formed
- Results, 5° C., 1 week ([5]; BCD 0.5 % w/w): Clear
- MTZ aqueous solubility with niacinamide [6]: 1%
- increase of MTZ aqueous solubility by niacinamide ([6]; 3% concentration of niacinamide): 0.3%
- solubility of MTZ above its unaided solubility with BCD and niacinamide combined ([6]; BCD at amount expected to yield 0.1% increase plus niacinamide at one third of the amount that raises solubility by 0.3%): 0.3%
SMILES: Cc1ncc([N+](=O)[O-])n1CCO [MTZ, 1-(2-hydroxyethyl)-2-methyl-5-nitroimidazole]

- concentration of niacinamide required to obtain a stable aqueous gel solution of 1.0% metronidazole ([6]; niacinamide alone, no BCD): about 3%
SMILES: NC(=O)c1cccnc1 [niacinamide]
